Laboratory results: ChEMBL document CHEMBL3751689, “Synthesis and biological properties of prodrugs of (S)-3-(adenin-9-yl)-2-(phosphonomethoxy)propanoic acid” (Eur J Med Chem, 2016)
Activity calls are given as the source filed them. The calls are words filed in the database; no cut-off is given here.

Columns and labels:
[1] = tested on: Hepatitis C virus; assay: Antiviral activity against HCV genotype 1b replicon infected in HuH7 cells after 3 days by renilla luciferase assay; assay type: functional, organism-based; conditions: for Activity: Hepacivirus hominis, Huh-7; for EC50: Huh-7, 72 h
[2] = tested on: Hepatitis C virus; assay: Antiviral activity against HCV genotype 2a replicon infected in HuH7 cells after 3 days by renilla luciferase assay; assay type: functional, organism-based; conditions: for Activity: Hepacivirus hominis, Huh-7; for EC50: Huh-7, 72 h
[3] = tested on: Hepatitis C virus; assay: Antiviral activity against HCV genotype 1a replicon infected in human HuH7 cells after 3 days by renilla luciferase assay; assay type: functional, organism-based; conditions: subtype 1a; for Activity: Hepacivirus hominis, Huh-7; for EC50: Huh-7, 72 h
[4] = tested on: Bordetella pertussis; assay: Inhibition of Bordetella pertussis CyaA in mouse J774A.1 cells assessed as cAMP formation at 10 uM by immunoassay relative to control; assay type: cell-based; conditions: values are per cent of control
[5] = Cytotoxicity against human MT4 cells; assay type: cell-based
[6] = Selectivity index, ratio of CC50 for human HuH7 cells to EC50 for HCV genotype 2a; parameters: species or system Huh-7
[7] = Cytotoxicity against human HeLa cells; assay type: cell-based
[8] = Selectivity index, ratio of CC50 for human HuH7 cells to EC50 for HCV genotype 1b; parameters: species or system Huh-7
[9] = Selectivity index, ratio of CC50 for human HuH7 cells to EC50 for HCV genotype 1a; parameters: species or system Huh-7
[10] = Cytotoxicity against human HuH7 infected with HCV genotype 1a cells after 3 days by calcein-AM dye based fluorescence analysis; assay type: cell-based, Huh-7; conditions: HuH7 cells infected with HCV genotype 1a
[11] = Cytotoxicity against human HuH7 infected with HCV genotype 1b cells after 3 days by calcein-AM dye based fluorescence analysis; assay type: cell-based, Huh-7; conditions: HuH7 cells infected with HCV genotype 1b
[12] = Cytotoxicity against human HuH7 infected with HCV genotype 2a cells after 3 days by calcein-AM dye based fluorescence analysis; assay type: cell-based, Huh-7; conditions: HuH7 cells infected with HCV genotype 2a
[13] = tested on: Human rhinovirus 1A; assay: Antiviral activity against HRV1A infected in HeLa cells; assay type: functional, organism-based
[14] = tested on: Human immunodeficiency virus 1; assay: Antiviral activity against HIV1 infected in MT4 cells; assay type: functional, organism-based; conditions: Human immunodeficiency virus 1, MT4

Row | SMILES | EC50 [1] [µM] | EC50 [2] [µM] | EC50 [13] [µM] | EC50 [3] [µM] | EC50 [14] [µM] | Activity [1] | Activity [2] | Activity [3] | residual activity [4] [%] | CC50 [5] [µM] | Ratio CC50/EC50 [6] | CC50 [7] [µM] | Ratio CC50/EC50 [8] | Ratio CC50/EC50 [9] | CC50 at 72 h [10] [µM] | CC50 at 72 h [11] [µM] | CC50 at 72 h [12] [µM]
1 | NC(=O)[C@H](Cn1cnc2c(N)ncnc21)OCP(=O)(O)O | – | – | – | – | – | inactive | inactive | inactive | 66 | – | – | – | – | – | – | – | –
2 | CCOC(=O)[C@H](Cc1ccccc1)NP(=O)(CO[C@@H](Cn1cnc2c(N)ncnc21)C(=O)OC)Oc1ccccc1 (some centres not stated) | 1.5 | 0.6 | > 50 | 0.8 | > 53.2 | – | – | – | 68 | 1.4 | 30 | > 50 | 30 | 30 | 42.6 | > 44.4 | 25.3
3 | Nc1ncnc2c1ncn2C[C@H](OCP(=O)(O)O)C(=O)NC1CC1 | – | – | – | – | – | inactive | inactive | inactive | 135 | – | – | – | – | – | – | – | –
4 | COC(=O)[C@H](Cn1cnc2c(N)ncnc21)OCP(=O)(O)O | – | – | – | – | – | inactive | inactive | inactive | 90 | – | – | – | – | – | – | – | –

Now from value to molecule, other results behind:

Row | EC50 [1] [µM] | EC50 [2] [µM] | EC50 [13] [µM] | EC50 [3] [µM] | EC50 [14] [µM] | SMILES | Activity [1] | Activity [2] | Activity [3] | residual activity [4] [%] | CC50 [5] [µM] | Ratio CC50/EC50 [6] | CC50 [7] [µM] | Ratio CC50/EC50 [8] | Ratio CC50/EC50 [9] | CC50 at 72 h [10] [µM] | CC50 at 72 h [11] [µM] | CC50 at 72 h [12] [µM]
5 | > 44.4 | 39.2 | > 50 | > 44.4 | > 53.2 | CCOC(=O)[C@H](C)NP(=O)(CO[C@@H](Cn1cnc2c(N)ncnc21)C(=O)OC)N[C@@H](C)C(=O)OCC | – | – | – | 139 | 40.5 | – | > 50 | – | – | > 44.4 | > 44.4 | > 44.4
6 | 1.1 | 0.6 | > 50 | 0.6 | > 53.2 | CCOC(=O)[C@H](Cc1ccccc1)NP(=O)(CO[C@@H](Cn1cnc2c(N)ncnc21)C(=O)OC)N[C@@H](Cc1ccccc1)C(=O)OCC | – | – | – | 112 | 0.7 | 30 | > 50 | 30 | 30 | 18.3 | 30.4 | 12.6
7 | > 44.4 | > 44.4 | > 50 | > 44.4 | > 53.2 | Nc1ncnc2c1ncn2C[C@H](OCP(=O)(O)O)C(=O)O | – | – | – | – | > 53.2 | – | > 50 | – | – | > 44.4 | > 44.4 | > 44.4
8 | > 44.4 | > 44.4 | > 50 | > 44.4 | > 53.2 | CCOC(=O)[C@H](C)NC(=O)[C@H](Cn1cnc2c(N)ncnc21)OCP(=O)(N[C@@H](C)C(=O)OCC)N[C@@H](C)C(=O)OCC | – | – | – | – | > 53.2 | – | > 50 | – | – | > 44.4 | > 44.4 | > 44.4
9 | 30.9 | 9.6 | > 50 | 20.6 | > 53.2 | CCCCCCCCCCCCCCCCOCCCOP(=O)(O)CO[C@@H](Cn1cnc2c(N)ncnc21)C(=O)OC | – | – | – | 140 | 3.7 | – | > 50 | – | – | > 44.4 | > 44.4 | > 44.4
